Assay results reported in patent US11691992B2 (Anacor Pharmaceuticals, Inc., priority 2017, dated 2023).

Key:
Format in all cases: cell-based
[1] = test system: bloodstream forms of T. b. rhodesiense STIB 900; experiment: T. brucei rhodesiense STIB 900 growth inhibition assay; conditions: Trypanosoma brucei; bloodstream forms, 72 h, Alamar Blue; protocol of Example 110; read-out: IC50: I Org. Growth T. brucei rhodesiense STIB 900, 3 d
In short: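 Bloodstream-form STIB 900 (10^4/well) were cultured in supplemented MEM with 15% horse serum and compound (90 to 0.123 μg/ml, 3-fold steps) for 72 h at 37 °C, 5% CO2. Viability was read by Alamar Blue fluorescence (ex 536/em 588 nm) after a further 2-4 h.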

[2] = test system: L. infantum MHOM/MA(BE)/67 amastigotes in primary peritoneal mouse macrophages; experiment: Leishmania infantum intracellular amastigote assay in mouse macrophages; conditions: Macrophage, 120 h, amastigotes in primary peritoneal mouse macrophages, 5 d, Giemsa staining, read-out: Inhibition of Organism Growth in Leishmania infantum MHOM/MA/BE/67, 5 d
In short: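 Amastigotes harvested from infected hamster spleen infected primary peritoneal mouse macrophages (5×10^5 amastigotes/well, 2 h, 37 °C). Compounds then present 5 d at 37 °C, 5% CO2. Parasite burden counted by microscopy after Giemsa staining, as % of untreated controls; IC50 from sigmoidal variable-slope fit.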

[3] = test system: IL3000 T. congolense (drug sensitive) strain; experiment: In vitro Alamar Blue 72 h drug sensitivity assay for T. congolense; conditions: Trypanosoma congolense; bloodstream form, 69 h + 3 h resazurin, 34° C.; classes A-C; read-out: IC50: I Org. Growth T. congolense IL-3000, 3 d
In short: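 Bloodstream-form trypanosomes in HMI medium with 20% bovine serum, exposed to compound for 69 h at 34 °C, 5% CO2, then resazurin for 3 h more. Fluorescence read at 536/588 nm. IC50 from 11-point sigmoidal dose-response curves, at least three independent runs.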

[4] = test system: Trypanosoma brucei rhodesiense STIB 900 strain; experiment: Trypanosoma brucei rhodesiense STIB 900 screening assay; conditions: STIB 900 bloodstream forms, 72 h, Alamar Blue, protocol of Example 114, read-out: Swiss TPH T b rhodesiense IC50
Method: Example 114. Trypanosoma brucei rhodesiense STIB 900 Screening Assay Procedure
The Trypanosoma brucei rhodesiense STIB 900 strain was isolated in 1982 from a human patient in Tanzania and after several mouse passages cloned and adapted to axenic culture conditions (Baltz, et al., EMBO Journal 4: 1273-1277 (1985); Thuita, et al., Acta Tropica 108: 6-10 (2008)). Minimum Essential Medium (50 μL) supplemented with 25 mM HEPES, 1 g/L additional glucose, 1% MEM non-essential amino acids (100×), 0.2 mM 2-mercaptoethanol, 1 mM Na-pyruvate and 15% heat inactivated horse serum was added to each well of a 96-well microtiter plate. Serial drug dilutions of seven 3-fold steps covering a range from 90 to 0.123 μg/mL were prepared. Then 10^4 bloodstream forms of T. b. rhodesiense STIB 900 in 50 μL was added to each well and the plate incubated at 37° C. under a 5% CO2 atmosphere for 72 h. 10 μL Alamar Blue (resazurin, 12.5 mg in 100 mL double-distilled water) was then added to each well and incubation continued for a further 2-4 h (Raz, et al., Acta Tropica 68: 139-47 (1997)). Then the plates were read with a Spectramax Gemini XS microplate fluorometer (Molecular Devices Corporation, Sunnyvale, Calif., USA) using an excitation wavelength of 536 nm and an emission wavelength of 588 nm. Data were transferred into the graphic program Softmax Pro (Molecular Devices), which calculated IC50 values.

[5] = test system: STIB719/ILRAD560 T. vivax (drug sensitive) strain; experiment: Ex vivo Alamar Blue 48 h drug sensitivity assay for T. vivax; conditions: Trypanosoma vivax, ex vivo bloodstream forms from mouse, 45 hrs + 3 hrs resazurin, read-out: IC50: I Hypoxanthine Incorporation T. vivax STIB 719/ILRA D 560, 2 d
Method: Example 109. Ex Vivo Alamar Blue 48 h Drug Sensitivity Assay for T. vivax
[…] Test compounds were prepared as 10 mg/mL DMSO stocks for each assay run. Compounds were assayed in at least three separate, independent test runs and an 11-point dilution curve was used to determine the IC50 values. Bloodstream form trypanosomes were propagated and harvested from a highly parasitemic mouse (via cardiac puncture) and were incubated with test compounds for 45 hrs at 37° C. in a humidified atmosphere containing 5% CO2, supported in HMI media containing 20% bovine serum. […] Plates were then read using a fluorescent plate reader (Spectramax, Gemini XS, Bucher Biotec, Basel, Switzerland) using an excitation wavelength of 536 nm and an emission wavelength of 588 nm. Data points were averaged to generate sigmoidal dose-response curves and IC50 values were determined using Softmax Pro 5.2 software.

| Structure (SMILES) | IC50 [1] | IC50 [2] | IC50 [3] | IC50 [4] | IC50 [5] |
| --- | --- | --- | --- | --- | --- |
| Cc1c(C(=O)Nc2ccc3c(c2)B(O)OC3)nnn1-c1ncccc1Cl [Example 82, 1-(3-Chloropyridin-2-yl)-N-(1-hydroxy-1,3-dihydrobenzo[c][1,2]oxaborol-6-yl)-5-methyl-1H-1,2,3-triazole-4-carboxamide] | 100 to 300 nM | 3000 to 19900 nM | < 100 nM | 100 to 250 nM | < 200 nM |
| O=C(Nc1ccc2c(c1)B(O)OC2)c1cn(-c2ccc(Cl)cn2)nn1 [Example 59, 1-(5-Chloropyridin-2-yl)-N-(1-hydroxy-1,3-dihydrobenzo[c][1,2]oxaborol-6-yl)-1H-1,2,3-triazole-4-carboxamide] | 100 to 300 nM | 3000 to 19900 nM | < 100 nM | < 100 nM | 201 to 500 nM |
| O=C(Nc1ccc2c(c1)B(O)OC2)c1cn(-c2ncccc2Cl)nn1 [Example 58, 1-(3-Chloropyridin-2-yl)-N-(1-hydroxy-1,3-dihydrobenzo[c][1,2]oxaborol-6-yl)-1H-1,2,3-triazole-4-carboxamide] | < 100 nM | 3000 to 19900 nM | < 100 nM | < 100 nM | < 200 nM |
| Cc1c(C(=O)Nc2ccc3c(c2)B(O)OC3)nnn1-c1cccc(C(F)(F)F)n1 [Example 48, N-(1-hydroxy-1,3-dihydrobenzo[c][1,2]oxaborol-6-yl)-5-methyl-1-(6-(trifluoromethyl)pyridin-2-yl)-1H-1,2,3-triazole-4-carboxamide] | – | – | 100 to 300 nM | – | 201 to 500 nM |
| Cc1c(C(=O)Nc2ccc3c(c2)B(O)OC3)nnn1-c1ccc(Cl)cn1 [Example 83, 1-(5-Chloropyridin-2-yl)-N-(1-hydroxy-1,3-dihydrobenzo[c][1,2]oxaborol-6-yl)-5-methyl-1H-1,2,3-triazole-4-carboxamide] | < 100 nM | < 3000 nM | < 100 nM | < 100 nM | 510 to 10000 nM |
| COc1ccccc1-n1nnc(C(=O)Nc2ccc3c(c2)B(O)OC3)c1C [Example 88, N-(1-hydroxy-1,3-dihydrobenzo[c][1,2]oxaborol-6-yl)-1-(2-methoxyphenyl)-5-methyl-1H-1,2,3-triazole-4-carboxamide] | 100 to 300 nM | < 3000 nM | < 100 nM | 100 to 250 nM | 201 to 500 nM |
| O=C(Nc1ccc2c(c1)B(O)OC2)c1nnn(-c2ccccn2)c1C1CC1 [Example 54, 5-cyclopropyl-N-(1-hydroxy-1,3-dihydrobenzo[c][1,2]oxaborol-6-yl)-1-(pyridin-2-yl)-1H-1,2,3-triazole-4-carboxamide] | – | – | < 100 nM | – | 201 to 500 nM |
| Cc1c(C(=O)Nc2ccc3c(c2)B(O)OC3)nnn1-c1cccc(C(F)(F)F)c1 [Example 87, N-(1-hydroxy-1,3-dihydrobenzo[c][1,2]oxaborol-6-yl)-5-methyl-1-(3-(trifluoromethyl)phenyl)-1H-1,2,3-triazole-4-carboxamide] | 100 to 300 nM | 3000 to 19900 nM | 100 to 300 nM | 100 to 250 nM | 510 to 10000 nM |
| CC1(C)OB(O)c2cc(NC(=O)c3cn(-c4ccccn4)nn3)ccc21 [Example 62, N-(1-hydroxy-3,3-dimethyl-1,3-dihydrobenzo[c][1,2]oxaborol-6-yl)-1-(pyridin-2-yl)-1H-1,2,3-triazole-4-carboxamide] | 310 to 10000 nM | 20000 to 100000 nM | 310 to 100000 nM | 260 to 2000 nM | 510 to 10000 nM |
| COCc1c(C(=O)Nc2ccc3c(c2)B(O)OC3)nnn1-c1ccccn1 [Example 53, N-(1-hydroxy-1,3-dihydrobenzo[c][1,2]oxaborol-6-yl)-5-(methoxymethyl)-1-(pyridin-2-yl)-1H-1,2,3-triazole-4-carboxamide] | – | – | < 100 nM | – | < 200 nM |
| Cc1c(C(=O)Nc2ccc3c(c2)B(O)OC3(C)C)nnn1-c1ccccn1 [Example 85, N-(1-hydroxy-3,3-dimethyl-1,3-dihydrobenzo[c][1,2]oxaborol-6-yl)-5-methyl-1-(pyridin-2-yl)-1H-1,2,3-triazole-4-carboxamide] | 310 to 10000 nM | 20000 to 100000 nM | 310 to 100000 nM | 260 to 2000 nM | 510 to 10000 nM |
| O=C(Nc1ccc2c(c1)B(O)OC2)c1nnn(-c2ccccn2)c1CO [Example 55, N-(1-hydroxy-1,3-dihydrobenzo[c][1,2]oxaborol-6-yl)-5-(hydroxymethyl)-1-(pyridin-2-yl)-1H-1,2,3-triazole-4-carboxamide] | – | – | < 100 nM | – | < 200 nM |
| Cc1nn(-c2ccccc2)nc1C(=O)Nc1ccc2c(c1)B(O)OC2 [Example 72, N-(1-hydroxy-1,3-dihydrobenzo[c][1,2]oxaborol-6-yl)-5-methyl-2-phenyl-2H-1,2,3-triazole-4-carboxamide] | 100 to 300 nM | 3000 to 19900 nM | < 100 nM | < 100 nM | 201 to 500 nM |
| O=C(Nc1ccc2c(c1)B(O)OC2)c1nnn(-c2ccccn2)c1CC(F)(F)F [Example 56, N-(1-hydroxy-1,3-dihydrobenzo[c][1,2]oxaborol-6-yl)-1-(pyridin-2-yl)-5-(2,2,2-trifluoroethyl)-1H-1,2,3-triazole-4-carboxamide] | – | – | 100 to 300 nM | – | 201 to 500 nM |
| Cc1c(C(=O)Nc2ccc3c(c2)B(O)OC3(C)C)nnn1-c1ccccc1 [Example 92, N-(1-hydroxy-3,3-dimethyl-1,3-dihydrobenzo[c][1,2]oxaborol-6-yl)-5-methyl-1-phenyl-1H-1,2,3-triazole-4-carboxamide] | 310 to 10000 nM | 20000 to 100000 nM | 310 to 100000 nM | 260 to 2000 nM | 510 to 10000 nM |
